ChEMBL document CHEMBL1129437, “New purines and purine analogs as modulators of multidrug resistance” (J Med Chem, 1996)

Key:
Mus musculus [1] = assay: Ratio of survival time of mice treated with VCR (0.25 mg/kg ip)+modulator given at the optimal dose of 100 mg/kg po/survival time of mice treated with VCR alone.; format: functional
Mus musculus [2] = assay: Ratio of survival time of mice treated with VCR (0.25 mg/kg ip)+modulator given at the optimal dose of 50 mg/kg po/survival time of mice treated with VCR alone.; format: functional
Mus musculus [3] = assay: Ratio of survival time of mice treated with VCR (0.25 mg/kg ip)+modulator given at the optimal dose of 100 mg/kg po/survival time of mice treated with VCR alone; format: functional
Mus musculus [4] = assay: Ratio of survival time of mice treated with VCR (0.25 mg/kg ip)+modulator given at the optimal dose of 200 mg/kg po/survival time of mice treated with VCR alone.; format: functional

Description for KB: Percent of cell viability of KB-A1 human epidermoid carcinoma remaining after inoculation with the modulator alone
Description for P388: Percent of cell viability of P388/VCR-20 murine leukemia cells remaining after inoculation with the modulator alone

| Structure (SMILES) | Viability (KB) [%] | Viability (P388) [%] | T/V (Mus musculus [1]) | T/V (Mus musculus [2]) | T/V (Mus musculus [3]) | T/V (Mus musculus [4]) | T/V (Mus musculus [1]; 100 mg/kg) |
| --- | --- | --- | --- | --- | --- | --- | --- |
| C=CCNc1nc(N2CCN(C(c3ccc(F)cc3)c3ccc(F)cc3)CC2)nc2c1ncn2CC=C | 103 | 99 |  |  |  |  |  |
| C=CCNc1nc(N2CCC(NCC3c4ccccc4CCc4ccccc43)CC2)c2ncn(CC=C)c2n1 | 95 | 112 | 1.19 |  |  |  |  |
| C=CCNc1nc(N2CCC(NCC3c4ccccc4COc4ccccc43)CC2)nc2c1ncn2CC=C (stereo unspecified) | 108 | 95 | 1.36 |  |  |  |  |
| C=CCn1ncc2c(NCCC)nc(N3CCC(NCC4c5ccccc5CCc5cc(OC)ccc54)CC3)nc21 (stereo unspecified) | 86 | 98 | 1.3 |  |  |  |  |
| C=CCNc1nc(N2CCN(C(c3ccc(F)cc3)c3ccc(F)cc3)CC2)c2ncn(CC=C)c2n1 | 73 | 98 |  |  |  |  |  |
| C=CCNc1nc(N2CCC(NC3c4ccccc4CCc4ccccc43)CC2)nc2c1ncn2CC=C | 111 | 111 |  |  |  |  |  |
| C=CCNc1nc(N2CCC(NCC3c4ccccc4CCc4ccccc43)CC2)nc2c1nnn2CC=C | 84 | 83 | 1.17 |  |  |  |  |
| C=CCNc1nc(N2CCC(NCC3c4ccccc4C=Cc4ccccc43)CC2)c2ncn(CC=C)c2n1 | 102 | 119 | 1.17 |  |  |  |  |
| C=CCNc1nc(N2CCC(NCC3c4ccccc4C=Cc4ccccc43)CC2)nc2c1ncn2CC=C | 110 | 111 |  | 1.21 |  |  |  |
| C=CCNc1nc(N2CCC(NCc3cccc4ccccc34)CC2)c2ncn(CC=C)c2n1 | 106 | 104 | 1.31 |  |  |  |  |
| C=CCNc1nc(N2CCC(NCC3c4ccccc4NC(=O)c4ccccc43)CC2)nc2c1ncn2CC=C (stereo unspecified) | 126 | 106 | 1.13 |  |  |  |  |
| C=CCNc1nc(N2CCC(NCC3CCCCc4ccccc43)CC2)nc2c1ncn2CC=C (stereo unspecified) | 122 | 123 |  | 1.2 |  |  |  |
| C=CCNc1nc(N2CCC(NCC3c4ccccc4CCc4cc(OC)ccc43)CC2)nc2c1cnn2CC=C (stereo unspecified) | 103 | 90 | 1.18 |  |  |  |  |
| C=CCNc1nc(N2CCC(NCC3c4ccccc4N(C)S(=O)(=O)c4cc(Cl)ccc43)CC2)c2ncn(CC=C)c2n1 (stereo unspecified) | 141 | 89 |  |  | 1.03 |  |  |
| C=CCNc1nc(N2CCC(NCC3c4ccccc4CCc4ccccc43)CC2)nc2c1cnn2CC=C | 132 | 74 | 1.31 |  |  |  |  |
| C=CCNc1nc(N2CCC(NC3c4ccccc4CCc4ccccc43)CC2)c2ncn(CC=C)c2n1 | 119 | 120 |  |  |  |  |  |
| C=CCNc1nc(N2CCN(C(c3ccc(F)cc3)c3ccc(F)cc3)CC2)nc2ncn(CC=C)c12 | 104 | 97 |  |  |  |  |  |
| C=CCNc1nc(N2CCC(NCC(c3ccccc3)c3ccccc3)CC2)nc2c1ncn2CC=C | 115 | 93 | 1.3 |  |  |  |  |

| Structure (SMILES) | Viability (KB) [%] | Viability (P388) [%] | T/V (Mus musculus [1]) | T/V (Mus musculus [2]) | T/V (Mus musculus [3]) | T/V (Mus musculus [4]) | T/V (Mus musculus [1]; 100 mg/kg) |
| --- | --- | --- | --- | --- | --- | --- | --- |
| C=CCNc1nc(N2CCC(NCC(c3ccc(F)cc3)c3ccc(F)cc3)CC2)c2ncn(CC=C)c2n1 | 106 | 108 |  |  |  |  |  |
| C=CCNc1nc(N2CCC(NCC3c4ccccc4CCc4ccccc43)CC2)nc2c1ncn2CCC | 107 | 102 | 1.31 |  |  |  |  |
| C=CCNc1nc(N2CCC(NCC3c4ccccc4CCc4cc(OC)ccc43)CC2)nc2c1ncn2CC=C (stereo unspecified) | 108 | 114 | 1.54 |  |  |  |  |
| C=CCNc1nc(N2CCC(NCC(c3ccc(F)cc3)c3ccc(F)cc3)CC2)nc2c1ncn2CC=C | 120 | 95 | 1.49 |  |  |  |  |
| C=CCNc1nc(N2CCC(NCC(c3ccccc3)(c3ccccc3)c3ccccc3)CC2)nc2c1ncn2CC=C | 127 | 119 | 1.3 |  |  |  |  |
| C=CCn1cnc2c(NCCC)nc(N3CCC(NCC4c5ccccc5CCc5ccccc54)CC3)nc21 | 112 | 103 |  | 1.38 |  |  |  |
| C=CCNc1nc(N2CCC(NCC3c4ccccc4CCc4cc(OC)c(OC)c(OC)c43)CC2)nc2c1ncn2CC=C (stereo unspecified) | 86 | 96 | 1.16 |  |  |  |  |
| C=CCNc1nc(N2CCC(NCc3cccc4ccccc34)CC2)nc2c1ncn2CC=C | 110 | 80 | 1.33 |  |  |  |  |
| C=CCNc1nc(N2CCC(NCC3c4ccccc4N(CCC)S(=O)(=O)c4ccccc43)CC2)nc2c1ncn2CC=C (stereo unspecified) | 145 | 96 | 1.21 |  |  |  |  |
| C=CCNc1nc(N2CCC(NCC3c4ccccc4N(C)S(=O)(=O)c4cc(Cl)ccc43)CC2)nc2c1ncn2CC=C (stereo unspecified) | 121 | 70 | 1.13 |  |  |  |  |
| C=CCNc1nc(N2CCC(NCC3c4ccccc4CCc4cc(OC)ccc43)CC2)c2ncn(CC=C)c2n1 (stereo unspecified) | 91 | 131 | 1.06 |  |  |  |  |
| C=CCNc1nc(N2CCC(NCC3Cc4ccccc4Cc4ccccc43)CC2)nc2c1ncn2CC=C (stereo unspecified) | 104 | 98 | 1.42 |  |  |  |  |
| CCCNc1nc(N2CCC(NCC3c4ccccc4CCc4ccccc43)CC2)nc2c1ncn2CCC | 127 | 98 | 1.57 |  |  |  |  |
| C=CCNc1nc(N2CCC(NCC3c4ccccc4CCc4ccccc43)CC2)nc2c1ccn2CC=C | 86 | 126 | 1.24 |  |  |  |  |
| C=CCNc1nc(N2CCC(NCC3c4ccccc4COc4ccccc43)CC2)c2ncn(CC=C)c2n1 (stereo unspecified) | 110 | 91 |  |  |  |  |  |
| C=CCNc1nc(NCC=C)nc(N2CCC(NCC(c3ccc(F)cc3)c3ccc(F)cc3)CC2)n1 | 111 | 93 |  |  |  | 1.19 |  |
| C=CCNc1nc(N2CCC(NC3c4ccccc4N(C)S(=O)(=O)c4cc(Cl)ccc43)CC2)nc2c1ncn2CC=C (stereo in doubt; 11) | 60 | 146 |  |  |  |  | 1.27 |
| C=CCNc1nc(N2CCC(NC3c4ccccc4N(C)S(=O)(=O)c4cc(Cl)ccc43)CC2)nc2c1ncn2CC=C (stereo in doubt; 12) | 64 | 135 |  |  |  |  | 1.11 |
